Results reported in patent US20210130401A1, “PEPTIDOMIMETIC INHIBITORS OF THE WDR5-MLL INTERACTION” (THE REGENTS OF THE UNIVERSITY OF MICHIGAN, priority 2017, published 2021).
pIC50: −log10 of the molar value. Read-outs that look alike come from different tables or passages of the source. Starred links: 1 amine or outer side, 2 acyl side, 3 side chain; linkers in the order of their positions; H or OH if unused. Positions of bridges follow the written chain, without caps; N, C: chain ends. Non-standard residues stand in square brackets, D forms with d. Residues, ends and D or L forms follow the SMILES beside them. ξ: configuration not given here. *: point of attachment. Arg(Nω,Nω'-propylene) = N[C@@H](CCCNC1=NCCCN1)C(=O)O; Arg(NO2) = N=C(NCCC[C@H](N)C(=O)O)N[N+](=O)[O-]; dαMeDab = C[C@](CCN[*:3])(N[*:1])C(=O)[*:2]; Arg(Me2a) = CN(C)C(=N)NCCC[C@H](N)C(=O)O; dPhg(2-OMe) = COc1ccccc1[C@@H](N)C(=O)O; dPhe(4-F) = N[C@H](Cc1ccc(F)cc1)C(=O)O; d1Nal = N[C@H](Cc1cccc2ccccc12)C(=O)O; dGly(cPent) = N[C@@H](C(=O)O)C1CCCC1; Lys(Me2) = CN(C)CCCC[C@H](N)C(=O)O; Cit = NC(=O)NCCC[C@H](N)C(=O)O; dCha = N[C@H](CC1CCCCC1)C(=O)O; dPhg = N[C@@H](C(=O)O)c1ccccc1; ξhhPhe = NC(CCCc1ccccc1)C(=O)O; 2Pyrimidinyl = c1cnc(*)nc1; Isobutyryl = CC(C)C(=O)*; Orn = NCCC[C@H](N)C(=O)O; Abu = CC[C@H](N)C(=O)O

Test system: MOLM-13 leukemia cells carrying MLL-AF9 fusion
Experiment: cell viability assay (WST-8), MOLM-13
Assay type: cell-based
Details: Homo sapiens, MOLM-13, 96 h; for IC50: read-out: MOLM-13 IC50 (μM); for pIC50: Table 2A, 4 days treatment, read-out: MOLM-13 IC50
Experimental: To assess cell viability, MOLM-13 leukemia cells carrying MLL-AF9 fusion, MV4;11 leukemia cells carrying MLL-AF4 fusion or HL-60 leukemia cells carrying no MLL fusion were seeded 1×10^4 cell/well in 96-well plates and treated with an inhibitor for 4 days at different concentrations, in culture media containing 0.2% DMSO as the final concentration. Cell viability was determined using the WST-8 cell proliferation assay kit (Dojindo Molecular Technologies) according to manufacturer's instructions. Three independent experiments in triplicates were performed.

Row | Structure (SMILES) | IC50 | pIC50
1 | CC[C@@H]1NC(=O)[C@H](CCCNC(=N)NC(C)=O)NC(=O)[C@](C)(NC(=O)C(C)C)CCNC(=O)[C@@H](CC2CCCCC2)NC1=O [Cpd. No. 26, N-((3R,6S,9S,12R)-9-(3-(3-acetylguanidino)propyl)-3-(cyclohexylmethyl)-6-ethyl-12-methyl-2,5,8,11-tetraoxo-1,4,7,10-tetraazacyclotetradecan-12-yl)isobutyramide] (Isobutyryl-[dαMeDab]R(Ac)[Abu][dCha]; lactam 1-C) | 1.02 µM | 
2 | CC[C@@H]1NC(=O)[C@H](CCCNC(=N)N(C)C)NC(=O)[C@](C)(NC(=O)C(C)C)CCNC(=O)[C@@H](CC2CCCCC2)NC1=O [Cpd. No. 36, N-((3R,6S,9S,12R)-3-(cyclohexylmethyl)-9-(3-(3,3-dimethylguanidino)propyl)-6-ethyl-12-methyl-2,5,8,11-tetraoxo-1,4,7,10-tetraazacyclotetradecan-12-yl)isobutyramide] (Isobutyryl-[dαMeDab][Arg(Me2a)][Abu][dCha]; lactam 1-C) | > 10 µM | 
3 | CC[C@@H]1NC(=O)[C@H](CCCNC2=NCC(C)(C)CN2)NC(=O)[C@](C)(NC(=O)C(C)C)CCNC(=O)[C@@H](CC2CCCCC2)NC1=O [Cpd. No. 96, N-((3R,6S,9S,12R)-3-(cyclohexylmethyl)-9-(3-((5,5-dimethyl-1,4,5,6-tetrahydxopyrimidin-2-yl)amino)propyl)-6-ethyl-12-methyl-2,5,8,11-tetraoxo-1,4,7,10-tetraazacyclotetradecan-12-yl)isobutyramide] | > 10 µM | 
4 | CC[C@@H]1NC(=O)[C@H](CCCNC(=N)N)NC(=O)[C@](C)(NC(=O)C(C)C)CCNC(=O)[C@@H](C)NC1=O [Cpd. No. 48, N-((3R,6S,9S,12R)-6-ethyl-9-(3-guanidinopropyl)-3,12-dimethyl-2,5,8,11-tetraoxo-1,4,7,10-tetraazacyclotetradecan-12-yl)isobutyramide] (Isobutyryl-[dαMeDab]R[Abu][dA]; lactam 1-C) |  | 5.76
5 | CC[C@@H]1NC(=O)[C@H](CCCNC(=N)N[N+](=O)[O-])NC(=O)[C@](C)(NC(=O)C(C)C)CCNC(=O)[C@@H](CC2CCCCC2)NC1=O [Cpd. No. 32, N-((3R,6S,9S,12R)-3-(cyclohexylmethyl)-6-ethyl-12-methyl-9-(3-(3-nitroguanidino)propyl)-2,5,8,11-tetraoxo-1,4,7,10-tetraazacyclotetradecan-12-yl)isobutyramide] (Isobutyryl-[dαMeDab][Arg(NO2)][Abu][dCha]; lactam 1-C) |  | < 5.00
6 | CC[C@@H]1NC(=O)C(CCCc2ccccc2)NC(=O)[C@](C)(NC(=O)C(C)C)CCNC(=O)[C@@H](c2ccccc2)NC1=O (stereo partly drawn) [Cpd. No. 14, N-((3R,6S,12R)-6-ethyl-12-methyl-2,5,8,11-tetraoxo-3-phenyl-9-(3-phenylpropyl)-1,4,7,10-tetraazacyclotetradecan-12-yl)isobutyramide] (Isobutyryl-[dαMeDab][ξhhPhe][Abu][dPhg]; lactam 1-C) | > 10 µM | 
7 | CC[C@@H]1NC(=O)[C@H](CCCNC2=NCC(F)(F)CN2)NC(=O)[C@](C)(NC(=O)C(C)C)CCNC(=O)[C@@H](CC2CCCCC2)NC1=O [Cpd. No. 95, N-((3R,6S,9S,12R)-3-(cyclohexylmethyl)-9-(3-((5,5-difluoro-1,4,5,6-tetrahydropyrimidin-2-yl)amino)propyl)-6-ethyl-12-methyl-2,5,8,11-tetraoxo-1,4,7,10-tetraazacyclotetradecan-12-yl)isobutyramide] | > 10 µM | 
8 | CC[C@@H]1NC(=O)[C@H](CCCNC(N)=O)NC(=O)[C@](C)(NC(=O)C(C)C)CCNC(=O)[C@@H](c2ccccc2)NC1=O [Cpd. No. 16, N-((3R,6S,9S,12R)-6-ethyl-12-methyl-2,5,8,11-tetraoxo-3-phenyl-9-(3-ureidopropyl)-1,4,7,10-tetraazacyclotetradecan-12-yl)isobutyramide] (Isobutyryl-[dαMeDab][Cit][Abu][dPhg]; lactam 1-C) | > 10 µM | 
9 | CC[C@@H]1NC(=O)[C@H](CCC(N)=O)NC(=O)[C@](C)(NC(=O)C(C)C)CCNC(=O)[C@@H](c2ccccc2)NC1=O [Cpd. No. 15, N-((3R,6S,12R)-9-(3-amino-3-oxopropyl)-6-ethyl-12-methyl-2,5,8,11-tetraoxo-3-phenyl-1,4,7,10-tetraazacyclotetradecan-12-yl)isobutyramide] (Isobutyryl-[dαMeDab]Q[Abu][dPhg]; lactam 1-C) | > 10 µM | 
10 | CC[C@@H]1NC(=O)[C@H](CCCNC(=N)N)NC(=O)[C@](C)(NC(=O)C(C)C)CCNC(=O)[C@@H](Cc2ccc(F)cc2)NC1=O [Cpd. No. 57, N-((3R,6S,9S,12R)-6-ethyl-3-(4-fluorobenzyl)-9-(3-guanidinopropyl)-12-methyl-2,5,8,11-tetraoxo-1,4,7,10-tetraazacyclotetradecan-12-yl)isobutyramide] (Isobutyryl-[dαMeDab]R[Abu][dPhe(4-F)]; lactam 1-C) | 6.51 µM | 
11 | CC[C@H](C)[C@@H]1NC(=O)[C@H](CCCNC(=N)N)NC(=O)[C@](C)(NC(=O)C(C)C)CCNC(=O)[C@@H](c2ccccc2)NC1=O [Cpd. No. 90, N-((3R,6S,9S,12R)-6-((S)-sec-butyl)-9-(3-guanidinopropyl)-12-methyl-2,5,8,11-tetraoxo-3-phenyl-1,4,7,10-tetraazacyclotetradecan-12-yl)isobutyramide] (Isobutyryl-[dαMeDab]RI[dPhg]; lactam 1-C) |  | < 5.00
12 | CC[C@@H]1NC(=O)[C@H](CCCNC(=N)N)NC(=O)[C@](C)(NC(=O)C(C)C)CCNC(=O)[C@@H](C2CCCC2)NC1=O [Cpd. No. 50, N-((3R,6S,9S,12R)-3-cyclopentyl-6-ethyl-9-(3-guanidinopropyl)-12-methyl-2,5,8,11-tetraoxo-1,4,7,10-tetraazacyclotetradecan-12-yl)isobutyramide] (Isobutyryl-[dαMeDab]R[Abu][dGly(cPent)]; lactam 1-C) | 1.19 µM | 
13 | CC[C@@H]1NC(=O)[C@H](CCCNC2=NCCCN2)NC(=O)[C@](C)(NC(=O)C(C)C)CCNC(=O)[C@@H](CC2CCCCC2)NC1=O [Cpd. No. 40, N-((3R,6S,9S,12R)-3-(cyclohexylmethyl)-6-ethyl-12-methyl-2,5,8,11-tetraoxo-9-(3-((1,4,5,6-tetrahydropyrimidin-2-yl)amino)propyl)-1,4,7,10-tetraazacyclotetradecan-12-yl)isobutyramide] (Isobutyryl-[dαMeDab][Arg(Nω,Nω'-propylene)][Abu][dCha]; lactam 1-C) | 0.88 µM | 
14 | CC[C@@H]1NC(=O)[C@H](CCCNc2ncccn2)NC(=O)[C@](C)(NC(=O)C(C)C)CCNC(=O)[C@@H](c2ccccc2)NC1=O [Cpd. No. 21, N-((3R,6S,12R)-6-ethyl-12-methyl-2,5,8,11-tetraoxo-3-phenyl-9-(3-(pyrimidin-2-ylamino)propyl)-1,4,7,10-tetraazacyclotetradecan-12-yl)isobutyramide] (Isobutyryl-[dαMeDab][Orn](2Pyrimidinyl)[Abu][dPhg]; lactam 1-C) | > 10 µM | 
15 | CC[C@@H]1NC(=O)[C@H](CCCN2CCN(C)CC2)NC(=O)[C@](C)(NC(=O)C(C)C)CCNC(=O)[C@@H](CC2CCCCC2)NC1=O [Cpd. No. 43, N-((3R,6S,9S,12R)-3-(cyclohexylmethyl)-6-ethyl-12-methyl-9-(3-(4-methylpiperazin-1-yl)propyl)-2,5,8,11-tetraoxo-1,4,7,10-tetraazacyclotetradecan-12-yl)isobutyramide] | > 10 µM | 
16 | CC[C@@H]1NC(=O)[C@H](CCCNC(=N)N)NC(=O)[C@](C)(NC(=O)C(C)C)CCNC(=O)[C@@H](c2ccccc2OC)NC1=O [Cpd. No. 99, N-((3R,6S,9S,12R)-6-ethyl-9-(3-guanidinopropyl)-3-(2-methoxyphenyl)-12-methyl-2,5,8,11-tetraoxo-1,4,7,10-tetraazacyclotetradecan-12-yl)isobutyramide] (Isobutyryl-[dαMeDab]R[Abu][dPhg(2-OMe)]; lactam 1-C) | 1.6 µM | 
17 | CC[C@@H]1NC(=O)[C@H](CCCNC(N)NC)NC(=O)[C@](C)(NC(=O)C(C)C)CCNC(=O)[C@@H](CC2CCCCC2)NC1=O (stereo partly drawn) [Cpd. No. 87, N-((3R,6S,9S,12R)-9-(3-((amino(methylamino)methyl)amino)propyl)-3-(cyclohexylmethyl)-6-ethyl-12-methyl-2,5,8,11-tetraoxo-1,4,7,10-tetraazacyclotetradecan-12-yl)isobutyramide] | 0.46 µM | 
18 | CC[C@@H]1NC(=O)[C@H](CCCCN(C)C)NC(=O)[C@](C)(NC(=O)C(C)C)CCNC(=O)[C@@H](c2ccccc2)NC1=O [Cpd. No. 6, N-((3R,6S,9S,12R)-9-(4-(dimethylamino)butyl)-6-ethyl-12-methyl-2,5,8,11-tetraoxo-3-phenyl-1,4,7,10-tetraazacyclotetradecan-12-yl)isobutyramide] (Isobutyryl-[dαMeDab][Lys(Me2)][Abu][dPhg]; lactam 1-C) | > 10 µM | 
19 | CC[C@@H]1NC(=O)[C@H](CCCNC(=N)N)NC(=O)[C@](C)(NC(=O)C(C)C)CCNC(=O)[C@@H](c2cccc3ccccc23)NC1=O [Cpd. No. 81, N-((3R,6S,9S,12R)-6-ethyl-9-(3-guanidinopropyl)-12-methyl-3-(naphthalen-1-yl)-2,5,8,11-tetraoxo-1,4,7,10-tetraazacyclotetradecan-12-yl)isobutyramide] | 1.29 µM | 
20 | CCCCNC(=N)NCCC[C@@H]1NC(=O)[C@](C)(NC(=O)C(C)C)CCNC(=O)[C@@H](CC2CCCCC2)NC(=O)[C@H](CC)NC1=O [Cpd. No. 47, N-((3R,6S,9S,12R)-9-(3-(3-butylguanidino)propyl)-3-(cyclohexylmethyl)-6-ethyl-12-methyl-2,5,8,11-tetraoxo-1,4,7,10-tetraazacyclotetradecan-12-yl)isobutyramide] | > 10 µM | 
21 | CC[C@@H]1NC(=O)[C@H](CCCNC(=N)N)NC(=O)[C@](C)(NC(=O)C(C)C)CCNC(=O)[C@@H](Cc2cccc3ccccc23)NC1=O [Cpd. No. 58, N-((3R,6S,9S,12R)-6-ethyl-9-(3-guanidinopropyl)-12-methyl-3-(naphthalen-1-ylmethyl)-2,5,8,11-tetraoxo-1,4,7,10-tetraazacyclotetradecan-12-yl)isobutyramide] (Isobutyryl-[dαMeDab]R[Abu][d1Nal]; lactam 1-C) | 2.37 µM | 
